Target: T1, human Flt-3 (Homo sapiens, UniProt P36888)
T1 construct: expresses the amino acid region amino acids 563-993 of the intra-cytoplasmic kinase domains of human Flt-3; made in house; host or cells: Sf9 insect cells (baculovirus, pFbacG01 donor vector)
T1 sequence (P36888 563-993): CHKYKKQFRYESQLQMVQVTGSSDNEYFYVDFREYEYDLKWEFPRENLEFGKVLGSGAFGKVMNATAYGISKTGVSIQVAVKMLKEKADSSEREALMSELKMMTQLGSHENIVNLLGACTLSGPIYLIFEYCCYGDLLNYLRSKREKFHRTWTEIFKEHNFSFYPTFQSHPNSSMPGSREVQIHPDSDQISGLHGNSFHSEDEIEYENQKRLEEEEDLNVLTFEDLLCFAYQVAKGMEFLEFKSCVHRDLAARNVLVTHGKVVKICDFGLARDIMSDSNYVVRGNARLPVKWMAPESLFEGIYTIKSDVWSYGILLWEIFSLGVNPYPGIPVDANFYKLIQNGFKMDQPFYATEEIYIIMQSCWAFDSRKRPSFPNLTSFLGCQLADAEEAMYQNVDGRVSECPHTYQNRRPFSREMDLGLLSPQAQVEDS
Test: Tyrosine protein kinase assay with purified GST-Flt-3 (33P incorporation)
Assay type: biochemical
Conditions: at a 1.0 micromolar concentration
Description: ATP into appropriate substrates.
The coding sequences for the cytoplasmic domain of Flt-3 was amplified by PCR from human c-DNA libraries (Clontech). The amplified DNA fragments and the pFbacG01 vector were made compatible for ligation by digestion with BamH1 and Hind III. […] The production of the viruses, the expression of proteins in Sf9 cells and the purification of the GST-fused proteins were performed as following:
(Generation of Bac- to Bac GST-fusion vectors); pFbacG01, pFbacGST2T and pFbacGSTx3 Bac-to-Bac™ donor vectors were generated from pAcG1, pAcG2T and pAcG3X respectively, which facilitate the expression of GST-fusion proteins with the possibility of cleavage with thrombin (pFbacGT2) or factor Xa (pFbacGSTx3) while pFbacG01 expresses no proteolytic cleavage site. These were generated in house by isolation of the DNA fragment containing the gene for GST with the C-terminal protease and restriction sites by restriction enzyme digestion of the relevant PharMingen baculovirus donor vector with EcoRV and EcoRI. This EcoRV/EcoRI fragment was ligated into the pFastBac1 vector which had been restriction digested with BamHI, blunt-ended by Klenow reaction and subsequently digested with EcoRI to generate a blunt-ended/EcoRI vector. (Production of virus); Transfer vectors containing the kinase domains were transfected into the DH10Bac cell line (GIBCO) and plated on selective agar plates. Colonies without insertion of the fusion sequence into the viral genome (carried by the bacteria) are blue. Single white colonies were picked and viral DNA (bacmid) isolated from the bacteria by standard plasmid purification procedures. Sf9 cells or Sf21 cells were then transfected in 25 cm^2 flasks with the viral DNA using Cellfectin reagent. (Determination of small scale protein expression in Sf9 cells); Virus containing media was collected from the transfected cell culture and used for infection to increase its titer. Virus containing media obtained after two rounds of infection was used for large-scale protein expression. For large-scale protein expression 100 cm^2 round tissue culture plates were seeded with 5×10^7 cells/plate and infected with 1 mL of virus-containing media (approx. 5 MOIs). After 3 days the cells were scraped off the plate and centrifuged at 500 rpm for 5 min. Cell pellets from 10-20, 100 cm^2 plates, were resuspended in 50 mL of ice-cold lysis buffer (25 mMTris-HCl, pH7.5, 2 mMEDTA, 1% NP-40, 1 mM DTT, 1 mMP MSF). The cells were stirred on ice for 15 min and then centrifuged at 5000 rpms for 20 min.
ATP 0.1 μCi). […] ATP into appropriate substrates. […] Subsequently, 40 μL of the reaction mixture were transferred onto Immobilon-PVDF membrane (Millipore, Bedford, Mass., USA) previously soaked for 5 min with methanol, rinsed with water, then soaked for 5 min with 0.5% H3PO4 and mounted on vacuum manifold with disconnected vacuum source. After spotting all samples, vacuum was connected and each well rinsed with 200 μL 0.5% H3PO4. Membranes were removed and washed 4× on a shaker with 1.0% H3PO4, once with ethanol. Membranes were counted after drying at ambient temperature, mounting in Packard TopCount 96-well frame, and addition of 10 μL/well of Microscint™ (Packard). […] One unit of protein kinase activity is defined as 1 nmole of ^33P ATP transferred from [γ^33P] ATP to the substrate protein per minute per mg of protein at 37° C.

Compound	Flt3 Inhibition (percent inhibition of Flt3 kinase activity)
[9a,10b,11b(S*),13a]-phenylmethyl 2-(acetylamino)-2-deoxy-3-O-[1-[[(2,3,10,11,12,13-hexahydro-10-methoxy-9-methyl-1-oxo-9,13-epoxy-1H,9H-diindolo[1,2,3-gh:3′,2′,1′-lm]pyrrolo[3,4-j][1,7]benzodiazonin-11-yl)methylamino]carbonyl]propyl]-a-D-Glucopyranoside [149622-45-7]	43%
CNC1CC2OC(C)(C1O)n1c3ccccc3c3c4c(c5c6ccccc6n2c5c31)C(=O)NC4 [239785-03-6, (9R,10S,11S,13S)-2,3,10,11,12,13-Hexahydro-10-hydroxy-9-methyl-11-(methylamino)-,9,13-epoxy-1H,9H-diindolo[1,2,3-gh:3′,2′,1′-lm]pyrrolo[3,4-j][1,7]benzodiazonin-1-one]	100%
(9a,10b,11b,13a)-11-[[N-Acetyl-4,6-di-O-acetyl-1-O-(phenylmethyl)-a-muramoyl]methylamino]-2,3,10,11,12,13-hexahydro-10-methoxy-9-methyl-9,13-epoxy-1H,9H-diindolo[1,2,3-gh:3′,2′,1′-lm]pyrrolo[3,4-j][1,7]benzodiazonin-1-one [149622-61-7]	70%
[9a,10b,11b(S*),13a]-2-(Acetylamino)-2-deoxy-3-O-[1-[[(2,3,10,11,12,13-hexahydro-10-methoxy-9-methyl-1-oxo-9,13-epoxy-1H,9H-diindolo[1,2,3-gh:3′,2′,1′-lm]pyrrolo[3,4-j][1,7]benzodiazonin-11-yl)methylamino]carbonyl]propyl]-a-D-Glucopyranose [149622-60-6]	76%
COC1C(N(C)C(=O)c2cc([N+](=O)[O-])cc([N+](=O)[O-])c2)CC2OC1(C)n1c3ccccc3c3c4c(c5c6ccccc6n2c5c31)C(=O)NC4 (stereo not drawn) [120685-18-9, [9S-(9a,10b,11b,13a)]-N-(2,3,10,11,12,13-Hexahydro-10-methoxy-9-methyl-1-oxo-9,13-epoxy-1H,9H-diindolo[1,2,3-gh:3′,2′,1′-lm]pyrrolo[3,4-j][1,7]benzodiazonin-11-yl)-N-methyl-3,5-dinitro-benzamide]	63%
11-[[N-Acetyl-1-deoxy-4,6-O-(phenylmethylene)muramoyl]methylamino]-2,3,10,11,12,13-hexahydro-10-methoxy-9-methyl-9,13-epoxy-1H,9H-diindolo[1,2,3-gh:3′,2′,1′-lm]pyrrolo[3,4-j][1,7]benzodiazonin-1-one [149622-49-1]	74%
CO[C@@H]1[C@H](N(C)C(=O)OC(C)(C)C)C[C@H]2O[C@]1(C)n1c3ccccc3c3c4c(c5c6ccccc6n2c5c31)C(=O)NC4 [120685-17-8, [9S-(9a,10b,11b,13a)]-(2,3,10,11,12,13-Hexahydro-10-methoxy-9-methyl-1-oxo-9,13-epoxy-1H,9H-diindolo[1,2,3-gh:3′,2′,1′-lm]pyrrolo[3,4-j][1,7]benzodiazonin-11-yl)methyl-carbamic acid, 1,1-dimethylethyl ester]	33%
(9a,10b,11b,13a)-11-[(N-Acetyl-6-O-acetyl-1-deoxymuramoyl)methylamino]-2,3,10,11,12,13-hexahydro-10-methoxy-9-methyl-, 11-[(N-acetyl-6-O-acetyl-1-deoxymuramoyl)methylamino]-2,3,10,11,12,13-hexahydro-10-methoxy-9-methyl-9,13-epoxy-1H,9H-diindolo[1,2,3-gh:3′,2′,1′-lm]pyrrolo[3,4-j][1,7]benzodiazonin-1-one [149622-68-4]	93%
(9a,10b,11b,13a)-11-[(N-Acetyl-a-muramoyl)methylamino]-2,3,10,11,12,13-hexahydro-10-methoxy-9-methyl-9,13-epoxy-1H,9H-diindolo[1,2,3-gh:3′,2′,1′-lm]pyrrolo[3,4-j][1,7]benzodiazonin-1-one [149622-53-7]	91%

From patent publication US8222244B2, “Staurosporine derivatives as inhibitors of FLT3 receptor tyrosine kinase activity” (Novartis AG, priority 2001, dated 2012)
